Measurements reported in the supplement of paper PMC10307832.

Tests used:
Assay in all cases: relative viability (nuclei count vs DMSO), 5 days (fraction); higher = more cells survive
[1] = compound: CN[C@@H]1C[C@H]2O[C@@](C)([C@@H]1OC)n1c3ccccc3c3c4c(c5c6ccccc6n2c5c31)C(=O)NC4 [Staurosporine] + CCNC(=O)c1noc(-c2cc(C(C)C)c(O)cc2O)c1-c1ccc(CN2CCOCC2)cc1 [Luminespib] (partner 0.01 µM)
How it was run: (§1)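 Relative viability divides the nuclei count in treated wells by that in vehicle wells. Lung cancer cell lines were seeded in 1536-well plates, dosed by pin tool the next day, and fixed and stained after 5 days in one step with final 0.05% Triton X-100, 1% formaldehyde and 1 ug/ml Hoechst. Dosing was a single drug or a fixed anchor-drug dose plus five library-drug doses (not always all listed) in √10 steps, and values are medians of duplicate plates imaged at 4×.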

[2] = compound: O=c1[nH]cc(F)c(=O)[nH]1 [5-Fluorouracil] + CCNC(=O)c1noc(-c2cc(C(C)C)c(O)cc2O)c1-c1ccc(CN2CCOCC2)cc1 [Luminespib] (partner 0.01 µM)
How it was run: as §1

[3] = compound: O=c1[nH]cc(F)c(=O)[nH]1 [5-Fluorouracil] + C[C@@H](Oc1cc(-c2cnn(C3CCNCC3)c2)cnc1N)c1c(Cl)ccc(F)c1Cl [Crizotinib] (partner 1 µM)
How it was run: as §1

[4] = compound: O=c1[nH]cc(F)c(=O)[nH]1 [5-Fluorouracil] + N=C(N)NC(=N)NCCc1ccccc1 [Phenformin] (partner 250 µM)
How it was run: as §1

Cell Line	relative viability ([1]; first compound 0.005 µM)	relative viability ([1]; first compound 0.01581 µM)	relative viability ([1]; first compound 0.05 µM)	relative viability ([1]; first compound 0.1581 µM)	relative viability ([1]; first compound 0.5 µM)	relative viability ([2]; first compound 0.02 µM)	relative viability ([2]; first compound 0.2 µM)	relative viability ([2]; first compound 0.6325 µM)	relative viability ([2]; first compound 2 µM)	relative viability ([3]; first compound 0.02 µM)	relative viability ([3]; first compound 0.2 µM)	relative viability ([3]; first compound 0.6325 µM)	relative viability ([3]; first compound 2 µM)	relative viability ([4]; first compound 0.02 µM)	relative viability ([4]; first compound 0.2 µM)	relative viability ([4]; first compound 0.6325 µM)	relative viability ([4]; first compound 2 µM)
NCI-H727	0.291	0.373	0.252	0.223	0.183	0.329	0.402	0.345	0.295	1.07	1.05	0.891	0.703	0.532	0.472	0.489	0.495
CAL-12T	0.0969	0.0675	0.0596	0.109	0.109	0.299	0.34	0.363	0.3	0.802	0.592	0.444	0.312	0.616	0.614	0.37	0.425
EPLC-272H	0.206	0.0928	0.0679	0.0575	0.075	0.313	0.296	0.208	0.198	0.841	0.614	0.346	0.228	0.247	0.257	0.245	0.184
A-427	0.712	0.463	0.231	0.159	0.149	1.01	0.883	0.682	0.548	0.799	0.965	0.77	0.378	0.29	0.461	0.279	0.212
NCI-H661	0.986	0.707	0.604	0.436	0.211	0.942	–	0.955	0.888	0.973	1.11	1.05	1.02	0.274	–	0.284	0.287
NCI-H1993	0.75	0.532	0.51	0.494	0.303	0.768	0.682	0.664	0.595	0.773	0.839	0.645	0.622	0.538	0.514	0.494	0.459
NCI-H358	0.563	0.198	0.359	0.167	0.0923	0.388	0.307	0.308	0.145	0.965	0.664	0.671	0.282	0.351	0.383	0.313	0.262
SK-LU-1	0.156	0.117	–	0.117	0.108	0.196	0.216	0.231	0.193	0.98	0.977	0.918	0.74	0.529	0.651	0.501	0.485
NCI-H1915	0.824	0.247	0.207	0.105	0.0895	0.658	0.855	0.699	0.597	0.819	0.949	0.824	0.619	–	0.34	0.355	0.361
NCI-H650	0.474	0.248	0.235	0.11	0.092	0.766	0.533	0.348	0.277	0.61	0.589	0.46	0.421	0.406	0.339	0.328	0.319
NCI-H441	0.36	0.216	0.195	0.231	0.148	0.447	0.39	0.384	0.242	0.511	0.767	0.388	0.333	0.927	0.979	0.553	0.387
COR-L 105	0.364	0.277	0.192	0.253	0.161	0.638	0.909	0.685	0.439	0.852	0.806	0.647	0.453	0.452	0.495	0.45	0.337
NCI-H2009	0.357	0.271	0.17	0.114	0.149	1.18	1.12	1.12	0.645	1.12	0.989	0.765	0.646	0.551	0.548	0.438	0.401
NCI-H1437	1.05	–	0.774	0.367	0.26	0.706	0.324	0.313	0.202	–	0.257	0.2	0.155	0.238	0.192	0.137	0.173
PC-3 [JPC-3]	0.628	0.474	0.319	0.323	0.272	0.66	0.753	0.621	0.524	0.989	0.996	0.882	0.676	0.48	0.476	0.496	0.45
NCI-H1944	0.928	0.507	0.41	0.44	0.187	0.73	0.625	0.3	0.185	0.993	0.92	0.392	0.193	0.195	0.208	0.157	0.135

Cell Line	relative viability ([1]; first compound 0.005 µM)	relative viability ([1]; first compound 0.01581 µM)	relative viability ([1]; first compound 0.05 µM)	relative viability ([1]; first compound 0.1581 µM)	relative viability ([1]; first compound 0.5 µM)	relative viability ([2]; first compound 0.02 µM)	relative viability ([2]; first compound 0.2 µM)	relative viability ([2]; first compound 0.6325 µM)	relative viability ([2]; first compound 2 µM)	relative viability ([3]; first compound 0.02 µM)	relative viability ([3]; first compound 0.2 µM)	relative viability ([3]; first compound 0.6325 µM)	relative viability ([3]; first compound 2 µM)	relative viability ([4]; first compound 0.02 µM)	relative viability ([4]; first compound 0.2 µM)	relative viability ([4]; first compound 0.6325 µM)	relative viability ([4]; first compound 2 µM)
NCI-H2085	0.39	0.315	0.2	0.227	0.171	0.418	0.456	0.445	0.349	0.962	1.01	0.756	0.636	0.577	0.844	0.761	0.68
NCI-H1792	0.459	0.287	0.18	0.188	0.199	0.616	0.439	0.262	0.182	1.07	0.943	0.31	0.164	0.199	0.365	0.177	0.122
NCI-H2347	0.4	0.262	0.216	0.228	0.263	0.41	0.72	0.41	0.411	0.78	0.534	0.563	0.479	0.296	0.489	0.24	0.328
ABC-1	0.261	0.274	0.147	0.156	0.0847	0.577	0.531	0.533	0.465	1.17	1.05	0.967	0.871	0.202	0.253	0.257	0.23
201T	1.03	–	0.693	0.349	0.334	1.03	0.809	0.352	0.301	1.02	0.948	0.384	0.287	0.423	0.378	0.288	0.297
NCI-H1755	0.276	0.214	0.155	0.195	0.155	0.57	0.346	0.331	0.219	0.838	0.655	0.313	0.258	0.667	0.598	0.364	0.256
NCI-H647	0.128	0.174	0.0674	0.0695	0.0608	0.166	0.157	0.243	0.136	1.13	1.1	0.941	0.692	0.504	0.495	0.544	0.399
NCI-H1650	0.168	0.18	0.183	0.16	0.169	0.213	0.185	0.246	0.211	0.859	0.801	0.505	0.367	0.396	0.444	0.273	0.279
NCI-H1355	0.591	0.278	0.212	0.209	0.191	0.644	0.57	0.287	0.246	1.04	0.672	0.373	0.266	0.431	0.412	0.296	0.297
NCI-H1975	0.159	0.155	0.131	0.169	0.146	0.302	0.217	0.397	0.237	1	1.01	0.429	0.263	0.385	0.357	0.266	0.194
BEN	0.397	0.256	0.383	0.152	0.129	0.18	0.399	0.543	0.371	1.02	0.719	0.615	0.718	0.255	0.257	0.285	0.251
NCI-H322M	0.631	–	0.259	0.274	0.182	0.841	1	0.724	0.552	1.09	0.807	0.699	0.491	0.857	0.743	0.724	0.541
SK-MES-1	–	0.204	0.121	0.149	0.124	1.07	0.606	0.349	0.255	1.01	0.743	0.368	0.319	0.748	0.4	0.331	0.242
HOP-62	0.949	0.426	0.189	0.134	0.109	0.953	0.92	0.853	0.855	0.938	0.733	0.9	0.781	0.617	0.728	0.636	0.644
NCI-H2405	0.282	0.148	0.0814	0.112	0.0639	0.707	0.786	0.676	0.693	0.871	0.954	0.797	0.579	0.394	0.409	0.34	0.369
